The source of these data is US20200237766A1, “PKM2 ACTIVATORS IN COMBINATION WITH REACTIVE OXYGEN SPECIES FOR TREATMENT OF CANCER” (TOLERO PHARMACEUTICALS, INC., priority 2017, published 2020).

One series deals with PKM2 (Homo sapiens, UniProt P14618). Kind of series: PKM2 activation biochemical assay (AC50 / max. response vs fructose 1,6-bisphosphate). As to conditions: biochemical assay; read-out: PKM2 AC50.
Series [1] has as its system A549 cells. Kind of series: GSH-Glo glutathione level assay in A549 cells. The series is classed as cell-based, human. Conditions: treated 48 hours, even at concentrations as low as 0.1 μM. As for the experimental part: Cells were treated for 48 hours, and then glutathione levels were determined using a GSH-Glo assay kit and procedure from Promega.
A further series deals with A549 lung cancer cells. Kind of series: A549 xenograft study in athymic nude mice (Example 7), tumor volume. It counts as in vivo. Conditions: combination of doxorubicin 2 mg/kg every 2 days and Compound 91 200 mg/kg every day. The method, then: A xenograph study was performed using A549 lung cancer cells to interrogate the in vivo synergy between a representative ROS-producing anti-cancer drug and a PKM2 activator. Mice (6-8 week old female athymic nude) were housed under standard conditions, and allowed food and water ad libitum and injected with 1×10^7 A549 cells per mouse.
(§1) Tumor volume and body weights were measured and recorded twice weekly (FIGS. 7A and 7B, respectively). Upon completion of the study, mice were euthanized and tumor tissues were harvested.

Series [2] in a line: Body weight in A549 xenograft study (Example 7). The series is classed as in vivo. As to conditions: combination of doxorubicin 2 mg/kg every 2 days and Compound 91 200 mg/kg every day, athymic nude mice. The method, then: A xenograph study was performed using A549 lung cancer cells to interrogate the in vivo synergy between a representative ROS-producing anti-cancer drug and a PKM2 activator. Mice (6-8 week old female athymic nude) were housed under standard conditions, and allowed food and water ad libitum and injected with 1×10^7 A549 cells per mouse. […] Compound 91 was administered orally at a concentration of 200 mg/kg every day.
as §1

The test system of series [3] is A549 human lung cancer cells. The series is described as follows: Subcutaneous A549 human lung cancer xenograft model in BALB/c nude mice (Example 8). The series is classed as in vivo, Mus musculus. As to conditions: Group 2: Doxorubicin 2 mg/kg i.v. Q2D × 3 weeks + vehicle p.o. As for the experimental part: A549 human lung cancer cells were inoculated in BALB/c nude mice and treatment was initiated when tumors reached a mean volume of approximately 100 mm^3.
4.5 Randomization 60 mice were enrolled in the study. All animals were randomly allocated to the 6 different study groups. […] Randomization was performed based on “Matched distribution” randomization method using multi-task method (StudyDirector™ software, version 3.1.399.19) on day 13.
After tumor cell inoculation, the animals were checked daily for morbidity and mortality. At the time of routine monitoring, the animals were checked for any effects of tumor growth and treatments on behavior such as mobility, food and water consumption, body weight gain/loss (body weight was measured twice per week, or based on request after randomization), and any other abnormalities. Mortality and observed clinical signs were recorded for individual animals.
Tumor volumes were measured twice weekly in two dimensions using a caliper, and the volume was expressed in mm^3 using the formula: V=(L×W×W)/2, where V is tumor volume, L is tumor length (the longest tumor dimension) and W is tumor width (the longest tumor dimension perpendicular to L).
Tumor weight was measured at the end of study based on the protocol. Dosing as well as tumor and body weight measurement were conducted in a Laminar Flow Cabinet.
Statistical analysis of differences in mean tumor volume among the groups was conducted by Independent-Samples T Test using the data collected.
All data were analyzed with SPSS (Statistical Product and Service Solutions) version 18.0 (IBM, Armonk, N.Y., U.S.). […] All tests were two-sided. P<0.05 was considered to be statistically significant.

In series [4] the test system is A549 cells. The series is described as follows: Cell-titer-Glo cell viability, A549 cells. The series is classed as cell-based, human.
A further series has as its system Panc1 cells. Kind of series: Cell-titer-Glo cell viability, Panc1 cells. The series is classed as cell-based. As to conditions: Compound 91 at 4 μM. As for the experimental part:
A549 and Pancl cells were plated using 384-well plates at a density of 1,200 cells per well. Cells were plated in RPMI media and allowed to adhere for 24 hours at 37° C. […] Cells were also treated with Compound 91 alone as a control. Cell viability was determined according to the Cell-titer-Glo assay kit and protocol from Promega Biosciences, LLC (Madison, Wis.).
A549 and Panc1 cells were plated according to the procedure described in Example 1. Cells were treated using a concentration gradient of rapamycin (FIGS. 5A-B) or Vosaroxin (a TOPOII poison; FIG. 5C), both in the presence and absence of Compound 91 at a concentration of 4 μM in replicates of 7 per condition. Cell viability was determined using the Cell-titer-Glo assay kit according to the procedure described in the examples above.

Where [5] appears, read: Homo sapiens, A549 cells, anti-cancer drug alone, Cell-titer-Glo, read-out: EC50, cell viability.

Counter-ions that a name gives are not always drawn. Like-named read-outs stand apart in the source and are kept apart here.

What is called AC50 is the concentration at which the activity in the assay is half-maximal. One may read the EC50 as the concentration that produces a half-maximal response.

Chain of PKM2 (P14618 whole entry): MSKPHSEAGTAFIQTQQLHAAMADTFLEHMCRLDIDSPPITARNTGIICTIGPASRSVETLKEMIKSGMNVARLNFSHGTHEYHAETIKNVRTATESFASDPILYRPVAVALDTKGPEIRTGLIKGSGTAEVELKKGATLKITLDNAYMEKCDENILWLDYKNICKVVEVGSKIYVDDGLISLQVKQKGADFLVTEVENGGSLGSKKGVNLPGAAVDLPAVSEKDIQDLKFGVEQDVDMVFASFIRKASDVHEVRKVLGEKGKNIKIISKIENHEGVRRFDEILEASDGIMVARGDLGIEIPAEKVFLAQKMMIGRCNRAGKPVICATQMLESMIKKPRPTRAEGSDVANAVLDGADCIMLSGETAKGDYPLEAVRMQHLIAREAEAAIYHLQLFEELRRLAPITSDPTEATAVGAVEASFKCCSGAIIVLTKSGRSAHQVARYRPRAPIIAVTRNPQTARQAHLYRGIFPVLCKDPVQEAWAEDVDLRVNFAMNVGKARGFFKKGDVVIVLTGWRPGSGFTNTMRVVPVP

As for `Cc1cccc2nc(Cn3cnc4ccccc43)cc(=O)n12` [PP8], the AC50 at PKM2 stood at 159 nM. Also, in the series with A549 cells [1], the “glutathione levels (GSH-Glo)” value is “decreased levels of glutathione”.

For the compound `Nc1cccc(F)c1CN(CCC1CCS(=O)(=O)CC1)C(=O)c1cc(C(F)(F)F)n[nH]1` [Compound 91], the “glutathione levels (GSH-Glo)” value in the series on A549 cells [1] is on record as “decreased levels of glutathione”. Moreover, in the series with A549 lung cancer cells, the tumor volume entry is recorded as “best reduction of tumor volume”. In series [2], the body weight result is reported as “no significant body weight reduction or fluctuation”.

In the case of `COc1cccc2c1C(=O)c1c(O)c3c(c(O)c1C2=O)C[C@@](O)(C(=O)CO)C[C@@H]3O[C@H]1C[C@H](N)[C@H](O)[C@H](C)O1` [Doxorubicin, doxorubicin, reference compound], in series [3] (Mean ± SEM), the “Tumor Size (mm^3) on day 33” value was determined as 723.15 ± 129.91 mm^3 and the “Tumor Weight (mg) on day 33” value amounted to 676.9 ± 107.8 mg. In series [3] (day 33), the “T/C (%) (tumor size)” value was 93%, the “T/C (%) (tumor weight)” value amounted to 91%, the “TGI (%) (tumor size)” value was 7% and the “TGI (%) (tumor weight)” value turned out to be 9%.

In the case of `O=S(=O)(c1ccc2c(c1)OCCO2)N1CCN(S(=O)(=O)c2c(F)cccc2F)CC1` [DASA, reference compound], in the series on A549 cells [1], the “glutathione levels (GSH-Glo)” value was “decreased levels of glutathione”.

Turning to `CN[C@H]1CN(c2ccc3c(=O)c(C(=O)O)cn(-c4nccs4)c3n2)C[C@@H]1OC` [Vosaroxin], the “cell viability: activity in presence vs absence of Compound 91” value with A549 cells [4] (A549 cells, Compound 91 at 4 μM, Cell-titer-Glo) is reported as “no significant change”; in the series on Panc1 cells it was “no significant change”.

Consider `CC(C)C[C@H](NC(=O)[C@H](Cc1ccccc1)NC(=O)c1cnccn1)B(O)O` [bortezomib], for which the “decrease in EC50 when used in combination with Compound 91” value in the series on A549 cells [4] (A549 cells, Compound 91 at 4 μM vs drug alone) was ~2 fold. The EC50 in the series on A549 cells [4] (setting [5]) worked out at 43.4 nM; in the series with A549 cells [4] (Homo sapiens, A549 cells, in the presence of Compound 91 at 4 μM, Cell-titer-Glo, read-out: EC50, cell viability, in combination with Compound 91), 27 nM.

For `CNC(=O)c1cc(Oc2ccc(NC(=O)Nc3ccc(Cl)c(C(F)(F)F)c3)cc2)ccn1` [sorafenib], the concentration for a half-maximal effect (EC50) in the series on A549 cells [4] (A549 cells, in the presence of Compound 91 at 4 μM, Cell-titer-Glo, read-out: EC50, cell viability, in combination with Compound 91) is 7130 nM; in the series on A549 cells [4] (setting [5]), 30100 nM.

On to `C=CCNc1c(O)cc2c(O)c1C[C@@H](C)C[C@H](OC)[C@H](O)[C@@H](C)/C=C(\C)[C@H](OC(N)=O)[C@@H](OC)/C=C\C=C(/C)C(=O)N2` [IPI-504, retaspimycin hydrochloride], for which, in the series with A549 cells [4] (Homo sapiens, A549, read-out: EC50, cell viability), the EC50 was 59.9 nM.

Consider `CCc1ccc(C)n2c(=O)cc(Cn3cnc4ccccc43)nc12` [PP11], for which the concentration at half-maximal activity (AC50) at PKM2 came out at 120 nM.
